According to patent US4223021A, “Synthetic peptides having pituitary growth hormone releasing activity” (priority 1979, dated 1980):
Residues, ends and D or L forms follow the SMILES beside them.

System: pituitaries removed from 20 day old female rats
Test: In vitro growth hormone release study (incubated rat pituitaries, GH radioimmunoassay)
Type: cell-based
Details: mean ± SEM, control -198± 85
Method: Female rats of the CD-1 strain were housed in a constant temperature room at 24° C. with 14 hours light and 10 hours darkness. The rats were fed Purina brand rat chow ab libitum.
All studies were started between 0800 and 1000 hours.
Pituitaries were removed from 20 day old female rats. Two pituitaries were incubated at 36° C. in 1 ml of lactated Ringer's solution in 10 ml polytetrafluoroethylene beakers in a Dubnoff Shaker (90 cycles/min.). The pituitaries were incubated a total of 4 hours (P1, P2, I3, and I4). After two successive one hour preincubation periods (P1, P2), the peptide was added to the incubation medium hourly for 2 hours (I3, I4).
This in vitro study was performed in triplicate and a standard radioimmunoassay of growth hormone present in the incubation medium was performed in duplicate. The hormonal activity was calculated as the difference (Δ) of growth hormone (GH) levels between I3, I4 and P2, i.e., (I3 -P2) and (I4 -P2). P values were calculated by Students' t test using six growth hormone values for each value recorded.
The growth hormone radioimmunoassay reagents were distributed by the National Institute of Arthritis and […] (NIAMDD) program. The growth hormone values were calculated in terms of nanograms (ng) of a rat standard with a growth hormone potency of 0.61 units/mg.

**Q.** With `NC(=O)[C@@H](Cc1ccccc1)NC(=O)[C@H](Cc1ccccc1)NC(=O)[C@@H](Cc1c[nH]c2ccccc12)NC(=O)CNC(=O)[C@@H](N)Cc1ccc(O)cc1` [H2 N-Tyr-Gly-D-Trp-Phe-D-Phe-CONH2] (HELM PEPTIDE1{Y.G.[dW].F.[dF].[am]}$$$$V2.0) as the compound, how does the “In vitro growth hormone release (ΔGH, I3/I4 minus P2)” value (1μg peptide, P value not significant) read?
**A.** 200 ± 167 ngΔGH/ml incubation medium

**Q.** And the “In vitro growth hormone release (ΔGH, I3/I4 minus P2)” value (10μg peptide, P value <0.001)?
**A.** 1384 ± 120 ngΔGH/ml incubation medium

**Q.** And the “In vitro growth hormone release (ΔGH, I3/I4 minus P2)” value (100μg peptide, P value <0.001)?
**A.** 1196 ± 194 ngΔGH/ml incubation medium
